According to publication PMC9873984, “Membrane cholesterol regulates inhibition and substrate transport by the glycine transporter, GlyT2” (Life Science Alliance, 2023):
Substitutions are numbered along the chain they refer to.

Columns and labels:
GlyT2 T512A mutant = target: T1, GlyT2 T512A mutant (Homo sapiens, UniProt Q9Y345, T512A); assay: Inhibitor washout time course (reversibility); format: cell-based; set-up: expressed in transfected cells; host or cells: Xenopus laevis oocytes injected with mutant RNA (pOTV vector); conditions: for Recovery at 30 Min / Half-life (transport current recovery): washout after 4 min IC50 concentration
T1 sequence (Q9Y345 1-797 T512A): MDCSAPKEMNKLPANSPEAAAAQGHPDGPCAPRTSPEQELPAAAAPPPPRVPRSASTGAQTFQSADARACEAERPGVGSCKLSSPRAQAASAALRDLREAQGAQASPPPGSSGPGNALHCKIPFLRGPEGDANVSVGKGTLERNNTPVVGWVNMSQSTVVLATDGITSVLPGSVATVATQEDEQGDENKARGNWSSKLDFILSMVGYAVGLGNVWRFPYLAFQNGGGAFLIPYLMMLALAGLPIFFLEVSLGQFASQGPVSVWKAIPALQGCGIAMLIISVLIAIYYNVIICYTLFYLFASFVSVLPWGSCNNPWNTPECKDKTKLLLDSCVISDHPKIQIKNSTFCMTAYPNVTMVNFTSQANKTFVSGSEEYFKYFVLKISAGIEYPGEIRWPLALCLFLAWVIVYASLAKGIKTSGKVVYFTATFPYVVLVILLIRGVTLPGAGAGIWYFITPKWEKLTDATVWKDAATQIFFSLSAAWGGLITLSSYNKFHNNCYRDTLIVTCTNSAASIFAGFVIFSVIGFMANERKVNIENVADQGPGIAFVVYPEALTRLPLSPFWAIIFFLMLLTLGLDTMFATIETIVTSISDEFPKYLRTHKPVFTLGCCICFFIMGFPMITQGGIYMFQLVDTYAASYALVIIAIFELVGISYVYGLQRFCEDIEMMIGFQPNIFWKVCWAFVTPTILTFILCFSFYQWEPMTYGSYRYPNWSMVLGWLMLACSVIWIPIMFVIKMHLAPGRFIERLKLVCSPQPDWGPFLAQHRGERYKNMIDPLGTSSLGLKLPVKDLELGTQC
Method: (§1) Reversibility of GlyT2 inhibitors was determined by applying an EC50 concentration of glycine followed by co-application of the inhibitor at an IC50 concentration once a stable current had been achieved. Inhibitors were applied for 4 min as this was sufficient time to produce substantial inhibition for each compound and allowed for their direct comparison. At the conclusion of 4 min (time 0), ND96 buffer was perfused through the recording chamber to wash the oocyte. […] Transport currents were normalized to glycine currents in the absence of inhibitor and converted to % recovery values via Y=It−It=0/Imax−It=0, where Y is % recovery, I is current in nA, Imax is the maximal current produced by the glycine EC50, and t is time in minutes. Washout kinetics were then determined by fitting % recovery values to the first-order rate equation: Y=(Y0−Plateau).e^(−Kt)+Plateau, where Y is the % recovery, Y0 is the point, which crosses the Y-axis (constrained to 0) and increases to the plateau (constrained to between 0 and 100), K is the rate constant (1/t), and t is time in minutes. […] Because of the slowly […] nature of the inhibitors, washout time courses involving cyclodextrin treatment could not be performed on the same cell. […] As these experiments could not occur on the same cell, differences in half-life and maximal recovery were analysed via an unpaired two-tailed t test.

WT GlyT2 = target: T2, WT GlyT2 (Homo sapiens, UniProt Q9Y345); assay: Inhibitor washout time course (reversibility), control and MβCD-treated oocytes; format: cell-based; set-up: expressed in transfected cells; host or cells: Xenopus laevis oocytes injected with in vitro transcribed RNA (pOTV vector)
T2 sequence (Q9Y345 1-797): T1 sequence (Q9Y345 1-797 T512A) with A512T
Method: Individual oocytes were incubated at 32°C for 30 min in 15 mM MβCD or γCD, suspended in frog Ringer’s solution.
as §1

[1] = MβCD-treated oocytes (15 mM, 30 min, 32°C)
[2] = WT, washout after 4 min IC50 concentration of inhibitor, Table S11

SMILES | Increase of recovery after 30 min compared to WT (GlyT2 T512A mutant; T512A vs WT) | Recovery at 30 Min (GlyT2 T512A mutant; T512A) | Recovery at 30 min (WT GlyT2; Control oocytes, Table S8) | Recovery at 30 min (WT GlyT2; [1]) | Half-life (transport current recovery) (GlyT2 T512A mutant; T512A) | Half-life (transport current recovery) (WT GlyT2; Control oocytes, Table S8) | Half-life (transport current recovery) (WT GlyT2; [1]) | Half-life (transport current recovery) (WT GlyT2; [2]) | Recovery at 30 Min (WT GlyT2; [2]) | Recovery at 30 min (WT GlyT2; MβCD-treated oocytes (15 mM, 30 min, 32°C), listed as OLLys) | Increase in recovery of current 30 min after application, vs WT (GlyT2 T512A mutant; T512A) | Half-life (transport current recovery) (WT GlyT2; MβCD-treated oocytes (15 mM, 30 min, 32°C), listed as OLLeu)
CCCCCCCC/C=C\CCCCCCCC(=O)O[C@H](CC(=O)[O-])C[N+](C)(C)C [Oleoyl-L-Carnitine, oleoyl-L-carnitine] | 1.8 fold | 79.4% | 45.7% | 92.4% |  |  |  |  |  |  |  | 
CCCCCCCC/C=C\CCCCCCCC(=O)N[C@@H](Cc1c[nH]c2ccccc12)C(=O)O [Oleoyl-L-Tryptophan, oleoyl-L-tryptophan] |  | No Recovery | No Recovery | No Recovery | No Recovery | No Recovery | No Recovery | No Recovery | No Recovery |  |  | 
CCCCCCCC/C=C\CCCCCCCC(=O)N[C@@H](CCCCN)C(=O)O [Oleoyl-L-Lysine, oleoyl-L-lysine] |  | 63.5 ± 2.0% |  | 63.0 ± 4.1% |  |  |  |  | 55.1 ± 1.5% | no difference was observed |  | 
CCCCCCCC/C=C\CCCCCCCC(=O)N[C@@H](CC(C)C)C(=O)O [Oleoyl-L-Leucine, oleoyl-L-leucine] |  | 76.2 ± 4.1 % |  | 92.2 ± 3.7 % | 1.7 ± 0.3 min | 2.3 ± 0.5 min | 3.1 ± 0.3 min | 2.3 ± 0.5 min | 51.1 ± 2.7% |  | 25.1% | unchanged
